The results in this text go back to US9802929B2, “Benzo five-membered nitrogen heterocyclic piperidine or piperazine derivatives and preparation methods and pharmaceutical compositions thereof” (Shenyang Haiwang Biotechnology Co., Ltd., priority 2012, dated 2017).

Molecules are shown by their SMILES. “And” between values parts separate entries of the source, which are not always exact repeats. Equal entries are not always repeated. Structures can show the parent of a compound that is named as a salt.

Data set [1] relates to In Vitro Vascular Smooth Muscle of Rabbits. In words: Relaxant effect on in vitro rabbit vascular smooth muscle contraction induced by adrenaline (AD). Conditions: for EC50: Oryctolagus cuniculus, relaxation of rabbit aortic rings contracted by AD (10^−5 mol/L); for relaxant effect against AD contraction (in words): rabbit vascular smooth muscle, AD 10^−5 mol/L. The source says:
Krebs-Henseleit (K—H) physiological solution: NaCl 6.92 (concentration units), KCl 0.35, MgSO4 0.29, KH2PO4 0.16, CaCl2 0.28, NaHCO3 2.1, glucose 2.0 (g/L), pH 7.2.
Preparation of compound II-1 to II-87 solutions: Weigh a certain quality compound samples and dilute to concentrations (10^−10˜10^−3 mol/L) with distilled water, standby.
(§1) Cut the chest open quickly after stunning, strip out the descending aorta, then after removing the surrounding connective tissue and adipose tissue (if performed serotonin receptor antagonist experiments, endothelial cells should be removed using a smooth stainless steel bars), cut the vessels into 3-5 mm vascular ring, then pass the steel hook through the blood vessel ring, with one end is fixed to the vent hook and the other end connected to the tension transducer, then place the specimens into bath tube containing 20 mL of nutrient solution, and record tension change by tension transducer. Maintain tube temperature at 37±0.5° C., and pass bubbles (95% O2+5% CO2) into the solution as a speed of 1-2 bubbles/minute. Place an initial load of 1.5 g on the rings, and change nutrient every 20 minutes, then balance for 2 hours and start test after baseline readings are stabilized.
After tension readings are stabilized, record a certain length of tension curve, and add spasmogens agent AD (10^−5 mol/L) to induce contraction; if a maximum contract is achieved, wash the specimens thoroughly, and change K—H solution every 20 minutes, and then balance for 60 minutes; after baseline readings are stabilized, induce contract with spasmogens agent again. When the maximum contract in the later induction is consistent with the former induction, add compound II-1 to II-34 solutions (1×10^−10 to 1×10^−3 mol/L), II-35 to II-87 solutions (1×10^−8-1×10^−3 mol/L), and record the curves. Draw a dose-response curve using maximum relaxation response as 100%, relaxation percentage as ordinate and negative logarithms of the each concentration as abscissa.

For data set [2], the system named is In-Vitro Vascular Smooth Muscle of Rabbits. In words: Relaxant effect on in vitro rabbit vascular smooth muscle contraction induced by hyperkalemia solution. Conditions: for EC50: Oryctolagus cuniculus, relaxation of rabbit aortic rings contracted by hyperkalemia solution (K+ 60 mmol/L); for relaxant effect against hyperkalemia solution contraction (in words): rabbit vascular smooth muscle.

Data set [3] is described as follows: Acute toxicity test, simplified probability unit method. The note with it: both sexes, mouse, in vivo; oral administration, Kunming mice.
The next data set relates to Ca^2+ channel. In words: Antagonism of CaCl2 cumulative contraction of rabbit aorta, pA2. The note with it: CaCl2 cumulative contraction after Ca-free hyperkalemia depolarization.
Text: Calcium-free K—H solution: Remove CaCl2 from K—H solution, add an equal number of moles of KCl, and add EDTA^−2Na^+ 0.1 mmol/L, while the other components remain unchanged.
Calcium-free hyperkalemia solution: Remove CaCl2 from hyperkalemia solution, add an equal number of moles of KCl, and add EDTA^−2Na^+ 0.1 mmol/L, while the other components remain unchanged.
as §1
After the tension is stabilized, wash the specimen three times and incubate with Ca-free K—H solution for 40 minutes; depolarize with Ca-free hyperkalemia solution for 20 minutes, and then add CaCl2 (10^−6-10^−2 mol/L) to the tube until a maximum response is achieved, and then record the curve. Then wash with K—H solution repeatedly, and replace with fresh K—H solution every 20 minutes; after balancing for 60 minutes and the baseline values are stabilized, wash the specimen again three times, and incubate with Ca-free K—H solution for 40 minutes; depolarize with Ca-free hyperkalemia solution for 20 minutes, and then add compound II-36 (3×10^−6 mol/L) to the tube, and incubate for 20 minutes; then add CaCl2 (10^−6-10^−2 mol/L) until a maximum response is achieved, and then record the curve. Mark CaCl2 contraction as ordinate using maximum response as 100% base. […] PA2 value of compound II-36 is 5.61±0.04 against CaCl2 contraction effect on rabbit aorta.
After the tension is stabilized, wash the specimen three times and incubate with Ca-free K—H solution for 40 minutes; depolarize with Ca-free hyperkalemia solution for 20 minutes, and then add CaCl2 (10^−6-10^−2 mol/L) to the tube until a maximum response is achieved, and then record the curve. […]

The next data set relates to Kunming mice. In words: Bone marrow micronucleus test. Conditions: of 1000 polychromatic erythrocytes; oral, four days, test on the 5th day; II-36 120 mg/kg/day, cyclophosphamide 60 mg/kg/day. As for the experimental part:
After four days of continuous administration, perform bone marrow micronucleus test on the 5th day.
Positive contro, Cyclophosphamide 60 mg/kg/day; negative control, saline solution 0.1 ml/10 g/day. After four days of continuous administration, perform bone marrow micronucleus test on the 5th day.
The mice were sacrificed by cervical dislocation, and quickly stripped out of the femur and sternum;
blood and muscles were removed, epiphysis was cleaned; then sternum bone marrow was transfer with a hemostat squeeze onto clean slides with drops of calf serum or wash the femoral the marrow with fetal calf serum directly onto clean slides; after mixing, adjust slides well; then put the adjusted and aired slide into a staining jar filled with methanol, and allow to fix for 15 minutes; and then take it out and place in air until dry out; then, use freshly prepared Giemsa application solution (one sample of Giemsa stock solution and nine samples of phosphate buffer pH 6.8), stained for 10 minutes to wash away slide dye with small stream of water, and then observe under a microscope after it is dried.

A further data set relates to α1 receptors. In words: Antagonism of α receptor agonist (noradrenaline / phenylephrine) cumulative contraction of rabbit aorta, pA2.
Text: as §1
After the tension is stabilized, record a certain length of the curve, and add NA (10^−8-10^−4 mol/L) to the tube until a maximum response is achieved, and then record the curve. Then wash the specimen with K—H solution repeatedly, balance for 1 h, add compound II-36 (3×10^−7 mol/L), and 20 minutes later, add NA following a same procedure. Mark NA contraction as ordinate using maximum response as 100% base. […] The larger the PA2 value, the stronger the antagonist effect. It is calculated based on the values of the attached figures by software.
After the tension is stabilized, record a certain length of the curve, and add NA (10^−8-10^−4 mol/L) to the tube until a maximum response is achieved, and then record the curve. Then wash the specimens repeatedly with K—H solution, and refresh K—H solution every 20 minutes, and balance for 60 minutes to allow baseline values are stabilized; then add doxazosin (10^−7 mol/L) and after 15 minutes, add NA in the same way (10^−8-6×10^−5 mol/L). Mark NA contraction as ordinate using maximum response as 100% base. […] The PA2 value of positive control doxazosin is 7.52±0.04 against NA contraction of rabbit aorta.
After the tension is stabilized, record a certain length of the curve, and add NA (3×10^−7-6×10^−5 mol/L) to the tube until a maximum response is achieved, and then record the curve. Then wash the specimen with K—H solution repeatedly, balance for 1 h, add compound II-65 (3×10^−6 mol/L), and 20 minutes later, add NA (3×10^−7-3×10^−4 mol/L) following a same procedure. Mark NA contraction as ordinate using maximum response as 100% base. […] PA2 value of compound II-65 is 6.02±0.13 against NA contraction effect on rabbit aorta.
After above procedures, wash the specimen repeatedly with K—H solution, balance for 1 hour, add doxazosin (10^−7 mol/L), and add NA in the same way after 15 minutes. Mark NA contraction as ordinate using maximum response as 100% base. […] The PA2 value of positive control doxazosin is 7.16±0.24 against NA contraction of rabbit aorta.
After the tension is stabilized, record a certain length of the curve, and add Phenylephrine (10^−6-6×10^−3 mol/L) to the tube until a maximum response is achieved, and then record the curve. Then wash the specimen with K—H solution repeatedly, balance for 1 h, add compound II-68 (3×10^−8 mol/L), and 20 minutes later, add Phenylephrine following a same procedure. Mark Phenylephrine contraction as ordinate using maximum response as 100% base. […] PA2 value of compound II-68 is 8.45±0.03 against Phenylephrine contraction effect on rabbit aorta.

A word on the EC50: it is the concentration that produces a half-maximal response. For `Clc1cccc(N2CCN(CCCCn3cnc4ccccc43)CC2)c1Cl` [Compound II-37, 1-(4-(4-(2,3-dichlorophenyl)piperazin-1-yl)butyl)-1H-benzimidazole], in data set [1], a half-maximal effect (EC50) was put at 0.977 µM and the “relaxant effect against AD contraction (in words)” value is “most significant relaxation effects”. In addition, in data set [2], the EC50 was 3.24 µM and the “relaxant effect against hyperkalemia solution contraction (in words)” value is “significant relaxant effect”.

Regarding `Clc1cccc(N2CCN(CCCCn3nnc4ccccc43)CC2)c1` [Compound II-63, 1-(4-(4-(3-chlorophenyl)piperazin-1-yl)butyl)-1H-benzotriazole], in data set [1], it took 0.977 µM to reach a half-maximal effect (EC50) and the “relaxant effect against AD contraction (in words)” value is “most significant relaxation effects”. In data set [2], the 50% effective concentration (EC50) is 2.29 µM and the “relaxant effect against hyperkalemia solution contraction (in words)” value was “significant relaxant effect”.

As usually defined, the LD50 is the dose expected to kill half of the subjects tested. In data set [2], `Clc1cccc(C2CCN(CCCCn3nnc4ccccc43)CC2)c1` [II-2, N-(4-(1H-benzotriazole-1-yl)butyl)-4-(3-chlorophenyl)piperidine] gave an EC50 of 15.1 µM. Also, the LD50 in data set [3] worked out at 362 mg/kg.

As to `c1ccc2c(c1)ncn2CCCCN1CCN(c2n[nH]c3ccccc23)CC1` [II-54, 1-(4-(4-(3-benzopyrazolyl)piperazin-1-yl)butyl)-1H-benzimidazole], the EC50 was 58.9 µM in data set [1] and 117 µM in data set [2].

`Clc1cccc(N2CCN(CCCn3nnc4ccccc43)CC2)c1Cl` [II-72, 1-(3-(4-(2,3-dichlorophenyl)piperazin-1-yl)propyl)-1H-benzotriazole]: the EC50 was 1.91 µM in data set [1] and 4.68 µM in data set [2].

As to `Cc1cccc(N2CCN(CCCn3nnc4ccccc43)CC2)c1` [II-73, 1-(3-(4-(3-methylphenyl)piperazin-1-yl)propyl)-1H-benzotriazole], the EC50 was 3.39 µM in data set [1] and 6.03 µM in data set [2].

As to `Fc1ccc2c(N3CCN(CCCOn4nnc5ccccc54)CC3)noc2c1` [II-86], the EC50 in data set [1] was 13.2 µM; in data set [2], 26.3 µM.

In the case of `CCOC(=O)C1=C(COCCN)NC(C)=C(C(=O)OC)C1c1ccccc1Cl` (stereo not shown) [amlodipine, Amlodipine Besylate, reference compound], the “PA2 value against CaCl2 contraction” value in the data set with Ca^2+ channel was 6.99±0.05 and 7.15±0.288.

With `O=P1(N(CCCl)CCCl)NCCCO1` (stereo not shown) [cyclophosphamide, Cyclophosphamide, reference compound], the “polychromatic erythrocytes with micronucleus” value with Kunming mice is listed as 12 ‰.

Regarding `COc1cc2nc(N3CCN(C(=O)C4COc5ccccc5O4)CC3)nc(N)c2cc1OC` (stereo not shown) [doxazosin, Doxazosin Mesylate, reference compound], the “PA2 value against Phenylephrine contraction” value in the data set on α1 receptors (Phenylephrine cumulative contraction) came to 7.52±0.04. Also, the “PA2 value against NA contraction” value in the data set with α1 receptors (noradrenaline (NA) cumulative contraction) was 7.52±0.04 and 7.16±0.24.
